Measurements reported in patent EP4553077A1 (Kinoteck Therapeutics Co., Ltd, priority 2022, dated 2024).

Target: Ba/F3-TEL-FGFR2 (Homo sapiens, UniProt P21802+P41212)
Test: Cell viability (proliferation inhibition) of Ba/F3 cells, CellTiter Glo
Conditions: read-out: Ba/F3 cell FGFR2 (IC50 nM), 72 h

Sequence of Ba/F3-TEL-FGFR2 (P21802 481-770 limits assumed, one chain of several): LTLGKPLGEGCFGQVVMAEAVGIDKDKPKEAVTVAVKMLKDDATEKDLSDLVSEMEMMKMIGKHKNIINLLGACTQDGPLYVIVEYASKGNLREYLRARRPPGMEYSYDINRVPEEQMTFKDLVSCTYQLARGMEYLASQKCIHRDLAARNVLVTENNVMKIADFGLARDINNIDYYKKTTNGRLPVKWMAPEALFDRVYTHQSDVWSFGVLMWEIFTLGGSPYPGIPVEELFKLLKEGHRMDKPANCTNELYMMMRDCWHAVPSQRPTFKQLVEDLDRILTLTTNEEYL

Row | SMILES | IC50
1 | C=C(C)C(=O)Nc1ccc(-c2c(-c3ccc(N=S(C)(=O)C4CCC4)cc3)c3c(N)ncnc3n2C)c(F)c1 (stereo not drawn) [Compound 50, N-(4-(4-amino-5-(4-((cyclobutyl (methyl) (oxo) - λ^6-sulfanylidene)amino)phenyl) -7-methyl-7H-pyrrole [2,3-d]pyrimidin-6-yl) -3-fluorophenyl) methacrylamide] | 7.6 nM
2 | C=C(C)C(=O)Nc1ccc(-c2c(-c3ccc(N=S(=O)(N4CCC4)C(F)(F)F)cc3)c3c(N)ncnc3n2C)cc1 (stereo not drawn) [Compound 51, N-(4-(4-amino-5-(4-((azetidin-1-yl(oxo)(trifluoromethyl)-λ^6-sulfanylidene)amino)phenyl) -7-methyl-7H-pyrrolo [2,3-d]pyrimidin-6-yl)phenyl) methacrylamide] | 19.1 nM
3 | C=C(C)C(=O)Nc1ccc(-c2c(-c3ccc(N=S(=O)(N(C)C)C(F)(F)F)cc3F)c3c(N)ncnc3n2C)cc1 (stereo not drawn) [Compound 52, N-(4-(4-amino-5-(4-(((dimethylamino) (oxo) (trifluoromethyl) -λ^6-sulfanylidene)amino) -2-fluorophenyl) -7-methyl-7H-pyrrolo [2,3-d]pyrimidin-6-yl)phenyl) methacrylamide] | 2.3 nM
4 | C=C(C)C(=O)Nc1ccc(-c2c(-c3ccc(N=S(=O)(N(C)CC)C(F)(F)F)c(F)c3)c3c(N)ncnc3n2C)cc1 (stereo not drawn) [Compound 53, N-(4-(4-amino-5-(4-(((ethyl(methyl)amino)(oxo)(trifluoromethyl)-λ^6-sulfanylidene)amino)-3-fluorophenyl)-7-methyl-7H-pyrrolo[2,3-d]pyrimidin-6-yl)phenyl) methacrylamide] | 10.2 nM
5 | C=C(C)C(=O)Nc1ccc(-c2c(-c3ccc(N=S(=O)(N(C)CC)C(F)(F)F)cc3)c3c(N)ncnc3n2C)cc1 (stereo not drawn) [Compound 54, N-(4-(4-amino-5-(4-(((ethyl (methyl)amino) (oxo) (trifluoromethyl) -λ^6-sulfanylidene)amino)phenyl) -7-methyl-7H-pyrrolo [2,3-d]pyrimidin-6-yl)phenyl) methacrylamide] | 2.8 nM
6 | C=C(C)C(=O)Nc1ccc(-c2c(-c3ccc(N=S(=O)(N4CCC4)C(F)(F)F)c(F)c3)c3c(N)ncnc3n2C)cc1 (stereo not drawn) [Compound 55, N-(4-(4-amino-5-(4-((azetidine 1-yl (oxo) (trifluoromethyl) -λ^6-sulfanylidene)amino)-3-fluorophenyl)-7-methyl-7H-pyrrolo[2,3-d]pyrimidin-6-yl)phenyl) methacrylamide] | 3 nM
7 | C=C(C)C(=O)Nc1ccc(-c2c(-c3ccc(N=S4(=O)CC(C)(C)C4)c(F)c3)c3c(N)ncnc3n2C)cc1 [Compound 57, N-(4-(4-amino-5-(4-((3,3-dimethyl-1-oxo-1λ^6-thiocyclobutyl-1-ylidene)amino) -3-fluorophenyl) -7-methyl-7H-pyrrolo [2,3-d]pyrimidin-6-yl)phenyl) methacrylamide] | 17.4 nM
8 | CC#CC(=O)Nc1ccc(-c2c(-c3ccc(N=S4(=O)CCCC4)cc3)c3c(N)ncnc3n2C)cc1 [Compound 60, N-(4-(4-amino-7-methyl-5-(4-((1-oxotetrahydro-1 λ^6-thiophene-1-ylidene)amino)phenyl) -7H-pyrrolo [2,3-d]pyrimidin-6-yl)phenyl) but-2-ynamide] | 13.1 nM
9 | C=C(C)C(=O)Nc1ccc(-c2c(-c3ccc(N=S4(=O)CCCC4)cc3F)c3c(N)ncnc3n2C)c(F)c1 [Compound 61, N-(4-(4-amino-5-(2-fluoro-4-((1-oxotetrahydro-1λ^6-thiophene-1-ylidene)amino)phenyl)-7-methyl-7H-pyrrolo[2,3-d]pyrimidin-6-yl)-3-fluorophenyl) methacrylamide] | 150 nM
10 | C=C(C)C(=O)Nc1ccc(-c2c(C3=CCC(=S(=O)(CC)C(C)C)C=C3)c3c(N)ncnc3n2C)cc1 (stereo not drawn) [Compound 62, N-(4-(4-amino-5-(4-(ethyl(isopropyl)(oxo)-1λ^6-sulfanylidene)phenyl) -7-methyl-7H-pyrrolo[2,3-d]pyrimidin-6-yl)-phenyl)methacrylamide] | 9.2 nM
11 | C=C(C)C(=O)Nc1ccc(-c2c(-c3ccc(N=S4(=O)CCCCC4)cc3)c3c(N)ncc(C#N)c3n2C)c(F)c1 [Compound 64, N-(4-(4-amino-7-cyano-1-methyl-3-(4-((1-oxotetrahydro-2H-1λ^6-thiopyran-1-ylidene)amino)phenyl) -1H pyrrolo [3,2-c]pyridine-2-yl) -3-fluorophenyl) methacrylamide] | 658 nM
12 | C=C(F)C(=O)N1CC=C(c2c(-c3ccc(N=S4(=O)CCCCC4)cc3)c3c(N)ncnc3n2C)CC1 [Compound 65, 1-(4-(4-amino-7-methyl-5-(4-((1-oxotetrahydro-2H-1 λ^6-thiopyran-1-ylidene)amino)phenyl)-7H-pyrrolo[2,3-d]pyrimidin-6-yl)-3,6-dihydropyridine-1(2H)-yl) -2-fluoropropan-2-enyl-1-one] | 121 nM
13 | CC#CC(=O)N1CC=C(c2c(-c3ccc(N=S4(=O)CCCCC4)cc3)c3c(N)ncnc3n2C)CC1 [Compound 66] | 27.8 nM
14 | CN(C)C/C=C/C(=O)N1CC=C(c2c(-c3ccc(N=S4(=O)CCCCC4)cc3)c3c(N)ncnc3n2C)CC1 [Compound 67, (E)-1-(4-(4-amino-7-methyl-5-(4-((1-oxotetrahydro-2H-1λ^6-thiopyran-1-ylidene)amino)phenyl) -7H-pyrrolo [2,3-d]pyrimidin-6-yl) -3,6-dihydropyridine-1 (2H)-yl) -4-(dimethylamino) but-2-enyl-1-one] | 105 nM
15 | C=C(C)C(=O)Nc1ccc(-c2c(-c3ccc(N=S4(=O)CCCCC4)c(F)c3)c3c(N)ncnc3n2C)cc1 [Compound 69, N-(4-(4-amino-5-(3-fluoro-4-((1-oxotetrahydro-2H-1λ^6-thiopyran-1-ylidene)amino)phenyl) -7-methyl-7H-pyrrolo [2,3-d]pyrimidin-6-yl)phenyl) methacrylamide] | 11.4 nM
16 | C=C(C)C(=O)Nc1ccc(-c2c(-c3ccc(N=S(=O)(NCC)C(F)(F)F)c(F)c3)c3c(N)ncnc3n2C)cc1 (stereo not drawn) [Compound 71, N-(4-(4-amino-5-(4-(((ethylamino)(oxo)(trifluoromethyl)-1 λ^6-sulfaneylidene)amino)-3-fluorophenyl)-7-methyl-7H-pyrrolo[2,3-d]pyrimidin-6-yl)phenyl) methacrylamide] | 2.5 nM
17 | C=C(C)C(=O)Nc1ccc(-c2c(-c3ccc(N=S4(=O)CC5(CC5)C4)cc3)c3c(N)ncnc3n2C)c(F)c1 [Compound 72] | 2.2 nM
18 | C=C(C)C(=O)Nc1ccc(-c2c(-c3ccc(N=S(=O)(CC)CC)cc3)c3c(N)ncnc3n2C)c(C(F)F)c1 [Compound 73] | 11.1 nM
19 | C=C(C)C(=O)Nc1ccc(-c2c(-c3cc(F)c(N=S(=O)(CC)CC)cc3F)c3c(N)ncnc3n2C)c(F)c1 [Compound 76] | 6.1 nM
20 | C=C(C)C(=O)Nc1ccc(-c2c(-c3ccc(N=S4(=O)CCCC4)cc3)c3c(N)ncnc3n2CCN(C)C)c(F)c1 [Compound 78, N-(4-(4-amino-7-(2-(dimethylamino)ethyl) -5-(4-((1-hydroperoxide-1λ^6-thiophene-1-ylidene)amino)phenyl) -7H-pyrrolo [2,3-d]pyrimidin-6-yl) -3-fluorophenyl) methacrylamide] | 585 nM
21 | C=C(C)C(=O)Nc1ccc(-c2c(-c3ccc(N=S4(=O)CCCC4)cc3)c3c(N)ncnc3n2CC(C)(C)O)c(F)c1 [Compound 79, N-(4-(4-amino-7-(2-hydroxy-2-methylpropyl)-5-(4-((1-hydroperoxid-1λ^6-thiophene-1-ylidene)amino)phenyl) -7H-pyrrolo [2,3-d]pyrimidin-6-yl) -3-fluorophenyl) methacrylamide] | 61.1 nM
22 | C=C(C)C(=O)Nc1ccc(-c2c(-c3ccc(N=S4(=O)CCCC4)c(OC)c3)c3c(N)ncnc3n2C)c(F)c1 [Compound 80, N-(4-(4-amino-5-(3-methoxy-4-((1-hydroperoxid-1λ^6-thiophene-1-ylidene)amino)phenyl)-7-methyl-7H-pyrrolo[2,3-d]pyrimidin-6-yl)-3-fluorophenyl) methacrylamide] | 46 nM
23 | C=C(C)C(=O)Nc1ccc(-c2c(-c3ccc(N=S4(=O)CCCC4)c(OC)c3)c3c(N)ncnc3n2C)c(Cl)c1 [Compound 81, N-(4-(4-amino-5-(3-methoxy-4-((1-hydroperoxid-1 λ^6-thiophene-1-ylidene)amino)phenyl) -7-methyl-7H-pyrrolo [2,3-d]pyrimidin-6-yl) -3-chlorophenyl) methacrylamide] | 18.1 nM
24 | C=C(C)C(=O)Nc1ccc(-c2c(-c3ccc(N=S(=O)(CC)CC)cc3F)c3c(N)ncnc3n2C)c(F)c1 [Compound 85] | 907 nM
25 | C=C(C)C(=O)Nc1ccc(-c2c(-c3ccc(N=S(=O)(CC)CC)cc3)c3c(N)ncnc3n2CCOC)c(F)c1 [Compound 86] | 67.4 nM
26 | [2H]C([2H])([2H])n1c(-c2cc(C)c(NC(=O)C(=C)C)cc2F)c(-c2ccc(N=S3(=O)CCCC3)c(F)c2)c2c(N)ncnc21 [Compound 91, N-(4-(4-amino-5-(3-fluoro-4-((1-tetrahydro-1λ^6-thiophene-1-ylidene)amino)phenyl) -7-(methyl-d3) -7H-pyrrolo [2,3-d]pyrimidin-6-yl) -5-fluoro-2-methylphenyl) methacrylamide] | 23.9 nM
27 | C=C(CN(C)C)C(=O)Nc1ccc(-c2c(-c3ccc(N=S4(=O)CCCC4)c(F)c3)c3c(N)ncnc3n2C)cc1 [Compound 92] | 0.8 nM
28 | C=C(C)C(=O)Nc1ccc(-c2c(-c3ccc(N=S(=O)(C4CC4)C4CC4)cc3)c3c(N)ncnc3n2C)cc1 [Compound 93, N-(4-(4-amino-5-(4-((dicyclopropyl (oxo)-λ^6-sulfaneylidene)amino)phenyl)-7-methyl-7H-pyrrolo [2,3-d]pyrimidin-6-yl)phenyl) methacrylamide] | 31.7 nM
29 | [2H]C([2H])([2H])n1c(-c2ccc(NC(=O)C(=C)C)cc2F)c(-c2ccc(N=S(C)(=O)c3ccccc3)c(F)c2)c2c(N)ncnc21 (stereo not drawn) [Compound 96, N-(4-(4-amino-5-(3-fluoro-4-((methyl (oxo) (phenyl) - λ^6-sulfaneylidene)amino)phenyl) -7-(methyl-d3) -7H-pyrrolo [2,3-d]pyrimidin-6-yl) -3-fluorophenyl) methacrylamide] | 29.8 nM
30 | C=C(C)C(=O)Nc1ccc(-c2c(-c3ccc(N=S4(=O)CCC4)c(F)c3)c3c(N)ncnc3n2C)c(C)c1 [Compound 99] | 2.7 nM
